Measured values taken from patent publication US20220175675A1, “ENCAPSULATING MOLECULES IN FAT GLOBULES” (The Regents of the University of California, priority 2019, published 2022).
Several values for one entry are separate records, joined by “and”; a condition that tells them apart may be missing. Equal entries are not always repeated. Where two headings read alike, the source gives them in different places. Marks after values point to notes of the source that are not given here. Blank lines part the entries; values can stand above or below the compound they belong to.

Tests used:
[1] = cited from earlier work
[2] = cited from earlier work; for Log P: octanol/water; for Water/octanol partitioning coefficient, Log P: Measured or estimated, from references
[3] = Encapsulation of hydrophobic compounds into milk fat globules (loading capacity, encapsulation efficiency); assay type: physicochemical, bovine; details: 10% v/v ethanol, 30 min; for % Encapsulation efficiency / maximal loading capacity (LC): room temperature; for maximal loading capacity (LC): maximal value over 50-2500 μM
Protocol: Raw milk was procured from a local market and stored at 4° C. Milk was used for up to 4 days post purchase. MFGs were separated from raw milk using centrifugal separation following a modified version of the method by Gallier et al. (2010) (12). First, raw milk was diluted with Milli-Q water at 9:1 water to milk, and the solution was centrifuged at 3,000×g for 5 min using a fixed angle centrifuge rotor. Cream was then skimmed off the sides of the centrifuged tubes after discarding the aqueous phase. In order to remove more of the milk serum components, cream was reconstituted in water to reach 4% w/v, and subjected to another step of centrifugation at 3,000×g for 5 min Cream was collected as detailed prior, then reconstituted to 20% w/v in Milli-Q water. All separation steps were completed at room temperature.
Encapsulation of test compounds in MFGs was accomplished by mixing ethanolic stock solution of a compound with 20% w/v cream suspended in water. The mixture was gently inverted several times to mix, then allowed in incubate in the dark.
To test the effect of incubation temperature on the partitioning and encapsulation yield and efficiency, RA was added at 250 μM concentration and was allowed to incubate with MFGs for 30 min at 4, 22, and 40° C.
To quantify the amount of compound encapsulated in MFGs, cream was separated from ethanol-containing aqueous phase via centrifugal separation at 3,000 x g for 5 min. Cream was skimmed and added to methanol at 50 mg/mL and vortexed vigorously for 1 min, then centrifuged at 16,000×g for 10 min. Top layer of methanol was collected and absorbance was measured at appropriate wavelength for each compound. An absorbance blank was prepared following the same encapsulation and separation steps in the absence of compound. λmax in methanol (nm) for each compound is reported in Table 1.
Cream (20% w/v in Milli-Q water) that was separated following the steps in Example 2 was further separated via centrifugation at 3,000×g for 5 min. Fat content in cream was measured using a modified Folch method (13). An additional washing step was incorporated where the chloroform/water interface was washed with 1:1 water/methanol solution.

[4] = Water/octanol partitioning coefficient, Log P
From the text: One such molecular property that is used to predict partitioning potential is the octanol—water partition coefficient; Log P, which is the logarithm of the ratio of the solute concentration in the octanol phase to the solute concentration in the water phase, at a defined temperature.

[5] = Loading of curcumin in milk fat globules; assay type: physicochemical, bovine
Protocol: Raw milk was used within 3-4 days of purchasing during which it was stored at 4° C. MFGs were isolated using a modified form of the method by […] et al. (2010) ^3° . […] Raw cream that was separated following the method stated in Example 31 was used for the quantification of oil content per gram of raw cream. […] The two immiscible phases were separated. […] Chloroform extracts were combined and the solvent was removed under vacuum at room temperature for 24 h. Mass of the isolated lipid from the sample was measured gravimetrically. Measurements were completed in triplicated from independent raw milk samples. […] Incubation was completed in the dark to prevent photodegradation of curcumin. […] Encapsulations measurements were conducted in triplicates. […] The mixture was then vortexed rigorously, followed by centrifugation at 16,000×g for 10 min. […] Curcumin containing samples were kept covered throughout the extraction and measurements steps. The encapsulation efficiency was calculated as follows: where CE is the mass of curcumin extracted from MFGs, and […]. The loading capacity was calculated as follows: where CE is the mass of curcumin extracted from MFGs, and MF is the mass of milk fat in MFGs suspension.

[6] = AAPH measurement of curcumin oxidative stability; assay type: physicochemical
Protocol: 100 mg/ml encapsulated oleosome and encapsulated whey protein emulsion were respectively added with 40mM AAPH (Sigma) or water as control. Encapsulated oleosome and whey protein emulsion were then rotated and curcumin was extracted at different time points.

[7] = 200 μg/g added curcumin/cream, 1 v/v % ethanol, 10 min
[8] = 400 μg/g added curcumin/cream, 2 v/v % ethanol, 10 min
[9] = 600 μg/g added curcumin/cream, 3 v/v % ethanol, 10 min
[10] = 1000 μg/g added curcumin/cream, 5 v/v % ethanol, 10 min
[11] = 1600 μg/g added curcumin/cream, 8 v/v % ethanol, 10 min
[12] = 2000 μg/g added curcumin/cream, 10 v/v % ethanol, 10 min

SMILES: CCOC(=O)C1=C(COCCN)NC(C)=C(C(=O)OC)C1c1ccccc1Cl (stereo not shown) [Amlodipine]
solubility in water (Remarks) [1]: Drug sparingly soluble in water. Special only has 1-month shelf-life.

SMILES: CC(=O)Oc1ccccc1C(=O)O [Aspirin]
solubility in water (Remarks) [1]: Very water soluble drug-use dispersible tablets

SMILES: COc1ccccc1OCCNCC(O)COc1cccc2[nH]c3ccccc3c12 (stereo not shown) [Carvedilol]
solubility in water (Remarks) [1]: Drug sparingly soluble in water. Special only has 1-month shelf-life.

SMILES: O=C1Nc2ccc(Cl)cc2[C@@](C#CC2CC2)(C(F)(F)F)O1 [Efavirenz]
Waters solubility [1]: 8.55 µg/mL
Log P [2]: 3.89-4.46

SMILES: CCOC(=O)[C@H](CCc1ccccc1)N[C@@H](C)C(=O)N1CCC[C@H]1C(=O)O [Enalapril]
solubility in water (Remarks) [1]: Drug sparingly soluble in water. Crushed tablets suspended in water

% Encapsulation efficiency ([3]; 50 μM added compound): 28.64 ± 5.20%
% Encapsulation efficiency ([3]; 100 μM added compound): 29.16 ± 1.50%
% Encapsulation efficiency ([3]; 150 μM added compound): 30.55 ± 3.76%
% Encapsulation efficiency ([3]; 200 μM added compound): 29.83 ± 2.47%
% Encapsulation efficiency ([3]; 250 μM added compound): 28.41 ± 1.56%
% Encapsulation efficiency ([3]; 500 μM added compound): 15.89 ± 1.42 %
% Encapsulation efficiency ([3]; 1000 μM added compound): 15.16 ± 1.46 %
% Encapsulation efficiency ([3]; 1500 μM added compound): 7.57 ± 0.43 %
% Encapsulation efficiency ([3]; 2000 μM added compound): 14.26 ± 2.77 %
% Encapsulation efficiency ([3]; 2500 μM added compound): 4.49 ± 1.08 %
maximal loading capacity (LC) [3]: 9.77 μg per gram of milk fat
logP [4]: ~1.5
SMILES: O=c1c(O)c(-c2ccc(O)c(O)c2)oc2cc(O)ccc12 [Fisetin]
Water/octanol partitioning coefficient, Log P [2]: 0.464-2.52 ^(14, 15)

SMILES: CC(C)(C)NCC(O)COc1cccc2c1CC(O)C(O)C2 (stereo not shown) [Nadolol]
solubility in water (Remarks) [1]: Drug sparingly soluble in water. Special only has 1-month shelf-life.

SMILES: CC[C@H](C)C(=O)O[C@H]1C[C@H](O)C=C2C=C[C@H](C)[C@H](CC[C@@H](O)C[C@@H](O)CC(=O)O)[C@H]21 [Pravastatin]
solubility in water (Remarks) [1]: Drug freely soluble in water, crushed tablets often dissolved in water.

SMILES: O.O=c1c(O)c(-c2ccc(O)c(O)c2)oc2cc(O)cc(O)c12 [Quercetin hydrate]
% Encapsulation efficiency ([3]; 50 μM added compound): 25.27 ± 3.47^ %
% Encapsulation efficiency ([3]; 100 μM added compound): 45.35 ± 8.53 %
% Encapsulation efficiency ([3]; 150 μM added compound): 43.78 ± 4.16 %
% Encapsulation efficiency ([3]; 200 μM added compound): 50.09 ± 3.71 %
% Encapsulation efficiency ([3]; 250 μM added compound): 48.95 ± 3.47 %
% Encapsulation efficiency ([3]; 500 μM added compound): 49.00 ± 1.17 %
% Encapsulation efficiency ([3]; 1000 μM added compound): 12.91 ± 1.78 %
% Encapsulation efficiency ([3]; 1500 μM added compound): 18.38 ± 9.27 %
% Encapsulation efficiency ([3]; 2000 μM added compound): 17.92 ± 4.31 %
% Encapsulation efficiency ([3]; 2500 μM added compound): 13.70 ± 1.30 %
maximal loading capacity (LC) [3]: 12.97 μg per gram of milk fat
encapsulation efficiency (EE %), maximal/overall value ([3]; over tested concentrations): 50%
Water/octanol partitioning coefficient, Log P [2]: 1.82-2.075 ^(16, 17)

SMILES: CCOC(=O)[C@H](CCc1ccccc1)N[C@@H](C)C(=O)N1[C@H](C(=O)O)C[C@@H]2CCC[C@@H]21 [Ramipril]
solubility in water (Remarks) [1]: Drug sparingly soluble in water. Crushed tablets suspended in water

SMILES: CC(=O)CC(c1ccccc1)c1c(O)c2ccccc2oc1=O (stereo not shown) [Warfarin]
solubility in water (Remarks) [1]: Drug freely soluble in water, crushed tablets often dissolved in water.

increase in encapsulation yield compared to reported loading values in emulsions formed using edible oils [5]: at least 3 folds
EE % [5, 7]: 62.09 ± 1.46%
LC %, curcumin/milk fat [5, 7]: 368 μg/g and 368.11 ± 2.92 ^a μg/g
EE % [5, 8]: 61.17 ± 2.13%
LC %, curcumin/milk fat [5, 8]: 244.69 ± 8.53 ^b μg/g
EE % [5, 9]: 62.10 ± 2.54%
LC %, curcumin/milk fat [5, 9]: 372.60 ± 15.27 ^c μg/g
EE % [5, 10]: 66.56 ± 0.13 %
LC %, curcumin/milk fat [5, 10]: 665.55 ± 1.31 ^d μg/g
EE % [5, 11]: 62.55 ± 0.37%
LC %, curcumin/milk fat [5, 11]: 1000.76 ± 5.97 ^e μg/g
EE % [5, 12]: 59.33 ± 0.73%
EE % range over curcumin and ethanol concentrations ([5]; 200-2000 μg/g of raw cream, 1 to 10% v/v ethanol, 10 min): 59-64%
EE % ([5]; Incubation time 10 min, fixed concentration of curcumin and ethanol): 62.36 ± 1.85%
EE % ([5]; Incubation time 20 min, fixed concentration of curcumin and ethanol): 66.43 ± 4.32%
EE % ([5]; Incubation time 30 min, fixed concentration of curcumin and ethanol): 61.20 ± 1.78%
EE % ([5]; Incubation time 40 min, fixed concentration of curcumin and ethanol): 59.75 ± 2.10%
EE % ([5]; Incubation time 50 min, fixed concentration of curcumin and ethanol): 57.24 ± 0.83 %
EE % ([5]; Incubation time 60 min, fixed concentration of curcumin and ethanol): 64.30 ± 2.42%
curcumin encapsulated per gram of milk fat ([5]; MFGs, simple diffusion): Greater than 1000 μg
curcumin absorbance remaining ([6]; WPI control group (water), at 20 and 24 h): 90%
curcumin absorbance remaining ([6]; WPI, 40mM AAPH): 0.03%
curcumin absorbance remaining ([6]; WPI, 40mM AAPH, 20 h): 22%
curcumin absorbance remaining ([6]; WPI, 40mM AAPH, 24 h): 12%
curcumin absorbance remaining ([6]; oleosome control group (water), within 46 h): above 90%
curcumin absorbance remaining ([6]; oleosome, 40mM AAPH): 42%
curcumin absorbance remaining ([6]; oleosome, 40mM AAPH, 20 h): 76%
curcumin absorbance remaining ([6]; oleosome, 40mM AAPH, 24 h): 68%
SMILES: COc1cc(/C=C/C(=O)CC(=O)/C=C/c2ccc(O)c(OC)c2)ccc1O [curcumin]
LC %, curcumin/milk fat [5, 12]: 1186.65±14.63 μg/g and 1186 μg/g and 1186.65 ± 14.63 ^ μg/g
Log P [2]: 4.3
Log P ([2]; listed as Curcumin): approximately 4.3
